Data on one compound can be found in US9598362B2, “Benzidine derivative, method for preparing same, and pharmaceutical composition containing benzidine derivative for treating liver disease caused by hepatitis C virus” (priority 2013, dated 2017).

One data set has as its target hERG (Homo sapiens, UniProt Q12809). Nature of the data set: hERG ligand binding, fluorescence polarization with red fluorescent hERG channel ligand.
Data set [1] in a line: Evaluation of plasma stability. The data set is classed as in vitro ADME, mouse. Conditions: plasma:phosphate buffer pH 7.4 1:1, 37° C., LC-MS/MS, relative to time 0. On the procedure: Particularly, the compound of Example 16 was dissolved in dimethylsulfoxide at the concentration of 5 μM, resulting in the preparation of the sample solution. The plasma solution (495 μl) was prepared by mixing phosphate buffer (pH 7.4) and plasma at the ratio of 1:1, which was loaded in each well of a 96-well plate. The sample solution prepared above was added to each well (5 μl) of the plate. Then, the plate was covered with a lid, followed by shaking-culture at 100 rpm at 37° C. for 0.5, 1, and 4 hours in the orbital shaker. The reaction was terminated by adding 0-5° C. acetonitrile. At this time, in the case when the process time was 0 after the sample treatment, the reaction was terminated with acetonitrile at the same time as the sample solution was loaded in the plate containing the plasma solution. Upon completion of the reaction, the plate was kept frozen. Then, the plate was centrifuged at 3000 rpm for 10 minutes. Upon completion of the centrifugation, the supernatant (100 μl) was loaded in each well of a 96-well plate, followed by LC-MS/MS. The result obtained by measuring the plasma survival rate at the process time 0 was considered as the standard, based on which each time-dependent plasma survival rate was calculated by considering the concentration over the time of each sample. The results are presented in Tale 6.

The nature of data set [2]: Evaluation of physiological activity: pharmacokinetics after oral or intravenous administration. The data set is classed as in vivo. Conditions: male mouse, 5 mg/kg; for AUC(0-inf): read-out: AUC0-∞, value up to infinite time from the administration; for half-life: read-out: T1/2 (time) (converted). On the procedure:
The following experiment was performed to evaluate physiological activity of the compound prepared in Example 16 by observing the pharmacokinetic changes.
Particularly, the compound of Example 16 was orally or intravenously administered to male mouse, followed by observation of the pharmacokinetic changes. For the oral administration, the compound of Example 16 was dissolved to make the concentration 2.5 mg/ml. The prepared compound solution was orally administered at the dose of 5 mg/kg, followed by drawing blood from the jugular vein of the mouse at regular intervals. For the intravenous administration, tubes were inserted in the jugular vein and the femoral vein of male mouse. The compound solution was intravenously injected through the femoral vein at the dose of 5 mg/kg, followed by drawing blood from the mouse at regular intervals. The drawed blood was centrifuged to separate plasma. The plasma and urine samples were pretreated with a proper organic solvent, followed by investigation by LC-MS/MS. At this time, LC-MS/MS was performed by using mass spectrometry (Agilent 6460 QQQ, Agilent), LC lamp (Agilent 1260, Agilent), autosampler (Agilent 1260, Agilent), and data analysis system (Peak Sample Data System, Analyst 1.4.2, Applied Biosystems), and the conditions for LC-MS/MS were as follows; sample injection amount: 10 μl, flow rate: 0.3 ml/min, column: […] C18 column (50 mm×2.0 mm, 12 nm, YMC), elution buffer: acetonitrile: 10 mM ammoniumformate buffer=90:10 (v/v), and MS/MS condition: MPM mode: HCV (m/z 761.8170.1), IS (imipramine, m/z 281.286.2). The blood concentration over the administration period of the compound treated via oral or intravenous administration was analyzed, from which the noncompartmental pharmacokinetic parameter was calculated by using WinNonlin (Pharsight, USA).

For the next data set, the system named is HCV replicon NK/R2AN. The data set is described as follows: Evaluation of anti-HCV activity 2: inhibition of HCV replication, huh7.5.1 cells with replicon NK/R2AN, renilla luciferase. To be noted: for EC50: Hepatitis C virus. The data set is classed as cell-based. The method, then: To evaluate the anti-HCV activity, that is the activity to inhibit HCV replication, of the compound represented by formula 1 of the present invention, the following experiment was performed.
The hepatoma cell line huh7.5.1 having NK/R2AN, the replicon with which the replication and translation of HCV could be measured, was distributed in a 12-well cell culture plate at the density of 50,000 cells/well. The cells were cultured in DMEM (Dulbecco's Modified Eagle's Medium 12800-017, GIBCO Co.) supplemented with 10% (v/v) FBS (Fetal Bovine Serum SH30406.02, Hyclone Co.), 1% (v/v) antibiotics (penicillin/streptomycin solution SV30010, Hyclone Co.), and G418 (600 μg/mL, Calbiochem) in a 37° C. 6.0% CO2 incubator (CO2 Incubator 311, Forma Scientific Co, Lnc. USA) for 24 hours to lead cell attachment on the plate. Then, the cells were inoculated with HCV having renilla luciferase gene as a reporter for 3 hours. Upon completion of the virus inoculation, the cell culture medium was replaced with the medium containing the compounds prepared in Examples 1˜24 were added to the culture medium at the concentrations of 40 pM˜1 μM each. The cells were cultured in a 37° C. 6.0% CO2 incubator (CO2 Incubator 311, Forma Scientific Co, Lnc. USA) for 3 days. Three days after the infection, the cell culture medium was collected to measure the cytotoxicity in the following Experimental Example 3. The cells attached on the plate were washed with PBS (phosphate buffered saline) and then lysed by treating 100 μl of 1× passive lysis buffer (Promega, E1941). The cell lysate (10 μl) was added to renilla luciferase assay reagent (50 μl) in renilla luciferase assay system (Promega, E2820), followed by measurement of luminescence for 10 seconds using the luciferase measure program with Luminometer (GLOMAX 20/20 Luminometer, Promega). At this time, the measurement of luminescence was performed in triplicate with the groups treated with the compounds of Examples 1˜24 and the non-treated control group. The mean value was calculated and compared. The luminescence of each compound over the concentration was converted into EC50 (half maximal effective concentration) by using sigma plot program, and the results are shown in Table 3. At this time, when EC50 was under 100 pM, it was marked as A; when EC50 was in the range of 100 pM 1 nM, it was marked as B; when EC50 was in the range of 1 nM˜100 nM, it was marked as C; and when EC50 was over 100 nM, it was marked as D. The results are shown in Table 3.
A general note: In antiviral work, replicon cells carry a viral genome segment that copies itself.

One may read the IC50 as the concentration that gives 50% inhibition. Read a low IC50 as inhibition by little substance. As a reminder, the Cmax is the maximum level reached in the sampled fluid or tissue. By bioavailability is commonly meant dose-corrected exposure relative to a reference, in per cent. Usually EC50 stands for the concentration at which the effect is half-maximal.

Each structure is given as a SMILES string. Where two headings read alike, the source gives them in different places.

hERG, sequence (Q12809 whole entry): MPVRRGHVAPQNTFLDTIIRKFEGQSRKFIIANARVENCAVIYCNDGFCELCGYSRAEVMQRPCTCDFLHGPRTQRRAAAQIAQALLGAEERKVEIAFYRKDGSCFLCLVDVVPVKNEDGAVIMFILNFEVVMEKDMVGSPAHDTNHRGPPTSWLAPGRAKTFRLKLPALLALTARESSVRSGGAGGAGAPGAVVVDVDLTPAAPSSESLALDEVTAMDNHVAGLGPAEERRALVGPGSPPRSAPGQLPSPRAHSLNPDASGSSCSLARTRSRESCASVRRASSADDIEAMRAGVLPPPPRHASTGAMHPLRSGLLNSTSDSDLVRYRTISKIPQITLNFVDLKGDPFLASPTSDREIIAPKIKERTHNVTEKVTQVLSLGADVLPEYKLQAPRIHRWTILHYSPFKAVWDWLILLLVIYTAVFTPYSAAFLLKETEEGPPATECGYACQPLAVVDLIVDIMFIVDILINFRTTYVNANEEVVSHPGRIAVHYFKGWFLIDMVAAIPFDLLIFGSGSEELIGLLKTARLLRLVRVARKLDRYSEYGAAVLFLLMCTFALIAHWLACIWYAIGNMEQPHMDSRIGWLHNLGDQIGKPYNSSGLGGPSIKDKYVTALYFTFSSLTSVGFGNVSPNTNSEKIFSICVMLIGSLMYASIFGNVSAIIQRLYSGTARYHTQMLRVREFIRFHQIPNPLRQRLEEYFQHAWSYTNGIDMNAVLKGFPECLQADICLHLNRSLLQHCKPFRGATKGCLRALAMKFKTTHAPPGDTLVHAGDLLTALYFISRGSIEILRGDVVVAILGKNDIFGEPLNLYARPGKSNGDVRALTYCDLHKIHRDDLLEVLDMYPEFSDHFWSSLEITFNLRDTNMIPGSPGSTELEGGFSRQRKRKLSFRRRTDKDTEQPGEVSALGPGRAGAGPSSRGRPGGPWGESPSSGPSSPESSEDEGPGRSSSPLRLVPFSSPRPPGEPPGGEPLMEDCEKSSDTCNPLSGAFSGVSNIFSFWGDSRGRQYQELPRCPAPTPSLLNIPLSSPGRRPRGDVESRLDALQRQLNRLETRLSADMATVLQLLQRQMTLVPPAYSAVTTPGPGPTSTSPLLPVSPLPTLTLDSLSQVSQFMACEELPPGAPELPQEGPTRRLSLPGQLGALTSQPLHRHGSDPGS

On to `COC(=O)N[C@@H](C(=O)N1CCC[C@H]1C(=O)Nc1ccc(-c2ccc(NC(=O)[C@@H]3CCCN3C(=O)[C@H](NC(=O)OC)c3ccccc3)cc2)cc1)c1ccccc1` [Example 16, dimethyl(1S,1′S)-2,2′-((2S,2′S)-2,2′-(biphenyl-4,4′-diylbis(azandiyl))bis(oxomethylene)bis(pyrrolidine-2,1-diyl))bis(2-oxo-1-phenylethane-2,1-diyl)dicarbamate], for which the IC50 at hERG is 9.8 µM. For the same compound, the “Survival rate after 0.5 h” value in data set [1] was >99%. For the same compound, in data set [1], the “Survival rate after 1 h” value was >99%. The AUC0-t in data set [2] (intravenous injection) is 9160 ± 1030 ng·h/mL; in data set [2] (oral administration) it was 1830 ± 565 ng·h/mL; in data set [2] (plasma, iv, intravenously injected, read-out: AUC0-24, value up to 24 hours from the administration) it was 9160 ng·h/mL; in data set [2] (plasma, po, orally administered, read-out: AUC0-24, value up to 24 hours from the administration), 1830 ng·h/mL. Moreover, the “AUC0-∞” value in data set [2] (intravenous injection) is 9370 ± 1060 ng·h/mL; in data set [2] (oral administration), 2500 ± 498 ng·h/mL. Further, the “Tmax (time)” value in data set [2] (oral administration) is on record as 2 ± 1.73 time. This compound came in with a Cmax in data set [2] (oral administration, plasma) of 188 ng/mL. In addition, the AUC(0-inf) was 9370 ng·h/mL in data set [2] (plasma, iv, intravenously injected) and 2500 ng·h/mL in data set [2] (plasma, po, orally administered). Also, in data set [2] (plasma, po relative to iv, printed in the Intravenous Injection column, read-out: Ft, bioavailability), the bioavailability came to 20%. This compound also gave a clearance in data set [2] (plasma, intravenous injection) of 8.97 mL/min/kg. Further, the half-life in data set [2] (plasma, intravenous injection) was 4.09 ± 3.06 h; in data set [2] (plasma, oral administration) it was 15 ± 9.5 h. The Vd in data set [2] (plasma, intravenous injection, read-out: Vss) worked out at 1.31 ± 0.144 L/kg. Besides, the Tmax in data set [2] (plasma, oral administration, read-out: time to reach the maximum concentration (Tmax)) came out at 2 h. The EC50 in the data set on HCV replicon NK/R2AN (Huh-7.5.1) is < 0.0001 µM; with HCV replicon NK/R2AN (Huh-7.5.1, 72 h, read-out: EC50 grade) it was < 0.0001 µM. Besides, the “EC50 (in words)” value in the data set on HCV replicon NK/R2AN (duplicated HCV treated with compound) is “significantly low”.
